Reference: ChEMBL document CHEMBL6103636, “Development of Potent SHP2 Allosteric Inhibitors: Design, Synthesis, and Evaluation with Antitumor Effects” (J Med Chem, 2025)

Columns and labels:
[1] = Toxicity in NU/NU mouse implanted with human KYSE520 cells assessed as abnormalities in animal at 25 mg/kg, po treated for 20 days; type: organism-based; details: in vivo, 480 h, time 20 day
KYSE-520 cell line = assay: cells; details: Homo sapiens, KYSE-520, 72 h
Description: Antiproliferative activity against human KYSE520 cells measured after 72 hrs by Cell Titer-Glo assay

[2] = Toxicity in NU/NU mouse implanted with human KYSE520 cells assessed as abnormalities in heart at 25 mg/kg, po treated for 20 days by H and E staining based analysis; type: organism-based; details: in vivo, 480 h, time 20 day
[3] = Toxicity in NU/NU mouse implanted with human KYSE520 cells assessed as abnormalities in lung at 25 mg/kg, po treated for 20 days by H and E staining based analysis; type: organism-based; details: in vivo, 480 h, time 20 day
[4] = Toxicity in NU/NU mouse implanted with human KYSE520 cells assessed as drug tolerance at 25 mg/kg, po treated for 20 days; type: organism-based; details: in vivo, 480 h, time 20 day
[5] = Toxicity in NU/NU mouse implanted with human KYSE520 cells assessed as abnormalities in kidney at 25 mg/kg, po treated for 20 days by H and E staining based analysis; type: organism-based; details: in vivo, 480 h, time 20 day
[6] = Toxicity in NU/NU mouse implanted with human KYSE520 cells assessed as body weight loss at 25 mg/kg, po treated for 20 days; type: organism-based; details: in vivo, 480 h, time 20 day
[7] = Inhibition of ERK phosphorylation in human KYSE520 cells incubated for 2 hrs by fluorescence based assay; type: cell-based; details: KYSE-520, 2 h
[8] = Toxicity in NU/NU mouse implanted with human KYSE520 cells assessed as abnormalities in spleen at 25 mg/kg, po treated for 20 days by H and E staining based analysis; type: organism-based; details: in vivo, 480 h, time 20 day
[9] = Toxicity in NU/NU mouse implanted with human KYSE520 cells assessed as abnormalities in liver at 25 mg/kg, po treated for 20 days by H and E staining based analysis; type: organism-based; details: in vivo, 480 h, time 20 day
[10] = biological target: T1, Tyrosine-protein phosphatase non-receptor type 11 (Homo sapiens, UniProt Q06124); assay: Inhibition of H2N-LN(pY)IDLDLV-(dPEG80) LST(pY)-ASINFQK-amide-activated SHP2 (unknown origin) using DiFMUP as substrate incubated for 30 mins by fluorescence based assay
T1 sequence (Q06124 whole entry): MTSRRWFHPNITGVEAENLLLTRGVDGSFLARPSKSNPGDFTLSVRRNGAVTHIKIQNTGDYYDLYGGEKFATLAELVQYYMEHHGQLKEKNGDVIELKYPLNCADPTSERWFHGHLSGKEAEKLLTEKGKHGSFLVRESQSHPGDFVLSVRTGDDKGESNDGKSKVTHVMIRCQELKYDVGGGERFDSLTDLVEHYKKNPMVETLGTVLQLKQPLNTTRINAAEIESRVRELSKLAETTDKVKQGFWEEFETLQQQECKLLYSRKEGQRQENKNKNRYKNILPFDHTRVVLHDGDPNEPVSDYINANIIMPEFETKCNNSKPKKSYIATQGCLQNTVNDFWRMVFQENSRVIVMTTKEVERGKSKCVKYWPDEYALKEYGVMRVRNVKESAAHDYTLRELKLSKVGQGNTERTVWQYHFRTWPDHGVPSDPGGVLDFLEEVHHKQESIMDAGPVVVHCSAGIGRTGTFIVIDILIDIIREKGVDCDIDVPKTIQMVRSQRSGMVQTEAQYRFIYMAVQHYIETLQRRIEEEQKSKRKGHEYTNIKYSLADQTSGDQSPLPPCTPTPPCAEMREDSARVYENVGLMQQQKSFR

| Compound | IC50 (KYSE-520 cell line) | IC50 [7] | IC50 [10] | further results |
| --- | --- | --- | --- | --- |
| C[C@@H]1OCC2(CCN(c3cnc(Sc4ccnc(N)c4Cl)c(N)n3)CC2)[C@@H]1N [BATOPROTAFIB] | 241 nM | 49 nM |  | Activity [1]: Non-toxic; Activity [2]: Non-toxic; Activity [3]: Non-toxic; Activity [4]: Non-toxic; Activity [5]: Non-toxic; Activity [6]: Non-toxic; Activity [8]: Non-toxic; Activity [9]: Non-toxic |
| Nc1nccc(Sc2ccc3nc(N4CC5CC(C4)N5)sc3n2)c1Cl |  |  | 623 nM |  |
| CCC1C(O)=C(C(=O)Nc2cccc(Sc3ccc4nc(N5CCC(C)(N)CC5)sc4n3)c2Cl)C(=O)N1C (centres undefined) | > 10000 nM | > 10000 nM | 82.7 nM |  |
| NC1COCC12CCN(c1nc3ccc(Sc4ccnc5c4OC[C@@H]4CCCN54)cc3s1)CC2 (some centres undefined) |  |  | 837 nM |  |
| NC1COCC12CCN(c1nc3ccc(Sc4cccc(NC(=O)c5c(O)nc6ccccn6c5=O)c4Cl)nc3s1)CC2 (centres undefined) | 1200 nM | 175 nM | 68.1 nM |  |
| NC1COCC12CCN(c1nc3ccc(Sc4cccc(NC(=O)C5=C(O)CN(c6ccccc6)C5=O)c4Cl)nc3s1)CC2 (centres undefined) | 9250 nM | 2150 nM | 70.2 nM |  |
| NC1COCC12CCN(c1nc3ccc(Sc4ccnc5c4OC[C@@H]4CCCN54)nc3s1)CC2 (some centres undefined) |  |  | 434 nM |  |
| NC1COCC12CCN(c1ncc(Sc3ccnc4c3OC[C@@H]3CCCN43)c3nncn13)CC2 (some centres undefined) |  |  | 78.9 nM |  |
| Nc1cccc(Sc2ccc3nc(N4CCCC(N)CC4)sc3n2)c1Cl (centres undefined) |  |  | 372 nM |  |
